The test system of this data set is Thymidine Kinase (TK1). Put plainly: Kinetic constant Km for Thymidine Kinase (TK1). It is filed as ADME.

Consider 1 compound from ChEMBL document CHEMBL1132362, “Synthesis of 5-(carboranylalkylmercapto)-2'-deoxyuridines and 3-(carboranylalkyl)thymidines and their evaluation as substrates for human thymidine kinases 1 and 2” (J Med Chem, 1999).

The term Km denotes the concentration of substrate that gives half-maximal velocity. As to `Cc1cn([C@H]2C[C@H](O)[C@@H](CO)O2)c(=O)[nH]c1=O` [DOXRIBTIMINE], the Km was 1 µM.
